System: COV434 cells
Assay: NAD cell assay (NAD cycling method) in COV434 cells
Format: cell-based
Settings: cellular NAD level, 200 uM, 4 hr, mole per mole versus parent NMN (NMN salts) or NaMN (NaMN salts), normalised to protein
Experimental: NAD levels were assayed based on the NAD cycling method of Zhu and Rand, PLoS One (2012), herein incorporated by reference. COV434 cells were maintained in 6 well plates and treated with the indicated compounds at a concentration of 200 uM for 4 hr. Media was removed, plates were washed in cold PBS and cells were scraped down in NAD extraction buffer containing 10 mM nicotinamide, 50 mM Tris HCl, 0.1% Triton X-100. Cells were homogenised by sonication for 5 seconds, and samples were centrifuged at 7,000 g for 5 min at 4 degrees. Aliquots were taken for later protein assay, and samples were then passed through 10 kDa amicon filters at 14,000 g, 30 min at 4 degrees to remove proteins from the sample. Each sample was measured in technical triplicate, with 25 μL sample added to 100 μL ADH cycling mix (0.2 mg/ml alcohol dehydrogenase enzyme, 2% ethanol, 100 mM Tris pH 8.5). Samples were allowed to cycle for 10 min at room temperature, followed by 50 μL addition of an MTT/PMS solution (0.1 mM phenazine methosulfate, 0.8 mM 3-(4,5-Dimethylthiazol-2-yl)-2,5-diphenyltetrazolium bromide), 100 mM Tris-HCl pH 8.5). Plates were then incubated for 15 min and absorbance was measured at 570 nm. NAD concentrations were extrapolated from a standard curve, and normalised to protein concentrations determined by BCA protein assay.
The adjusted fold increase is obtained through a direct comparison on a mole per mole basis between the compared salt and its parent counterpart. In other words, the instant salts derived from NMN parent molecule will only have their NAD activity level measured against NMN based on the same amount (mole) of salt tested in the cell. Likewise those salts derived from NaMN will have their NAD cell activity measured against NaMN. For example, the fold increase of compound I-002 is based on the NAD activity observed in a direct comparison for the same amount of mole of I-002 tested in the cell and that of the NMN parent. Similarly, the fold increase of I-003 is based on the direct comparison with NaMN.

Compound	FOLD increase adjusted for MW (compared to parent molecule)
O=C([O-])c1ccc[n+]([C@@H]2O[C@H](COP(=O)(O)O)[C@@H](O)[C@H]2O)c1 [Compound I-026, Bis((S)-5-amino-5-carboxypentan-1-aminium)-1-((2R,3R,4S,5R)-3,4-dihydroxy-5-((phosphonatooxy)methyl)tetrahydrofuran-2-yl)pyridin-1-ium-3-carboxylate]	2.47 fold
O=C([O-])c1ccc[n+]([C@@H]2O[C@H](COP(=O)(O)O)[C@@H](O)[C@H]2O)c1 [Compound I-001, (S)-1-Carboxy-2-methylpropan-1-aminium 1-((2R,3R,4S,5R)-5-(((hydrogenphosphonato)oxy)methyl)-3,4-dihydroxytetrahydrofuran-2-yl)pyridin-1-ium-3-carboxylate]	1.61 fold
O=C([O-])c1ccc[n+]([C@@H]2O[C@H](COP(=O)(O)O)[C@@H](O)[C@H]2O)c1 [Compound I-015, Bis((S)-1-Carboxy-4-guanidinobutan-1-aminium)-1-((2R,3R,4S,5R)-3,4-dihydroxy-5-((phosphonatooxy)methyl)tetrahydrofuran-2-yl)pyridin-1-ium-3-carboxylate]	2.04 fold
O=C([O-])c1ccc[n+]([C@@H]2O[C@H](COP(=O)(O)O)[C@@H](O)[C@H]2O)c1 [Compound I-009, (S)-1-Carboxy-4-guanidinobutan-1-aminium 1-((2R,3R,4S,5R)-5-(((hydrogenphosphonato)oxy)methyl)-3,4-dihydroxytetrahydrofuran-2-yl)pyridin-1-ium-3-carboxylate]	2.03 fold
O=C([O-])c1ccc[n+]([C@@H]2O[C@H](COP(=O)(O)O)[C@@H](O)[C@H]2O)c1 [Compound I-005, Bis((S)-4-Amino-1-carboxy-4-oxobutan-1-aminium)-1-((2R,3R,4S,5R)-3,4-dihydroxy-5-((phosphonatooxy)methyl)tetrahydrofuran-2-yl)pyridin-1-ium-3-carboxylate]	3.05 fold
NC(=O)c1ccc[n+]([C@@H]2O[C@H](COP(=O)([O-])O)[C@@H](O)[C@H]2O)c1 [Compound I-002, (S)-1-Carboxy-2-methylpropan-1-aminium ((2R, 3S, 4R, 5R)-5-(3-carbamoylpyridin-1-ium-1-yl)-3,4-dihydroxytetrahydrofuran-2-yl)methyl phosphate]	1.24 fold
O=C([O-])c1ccc[n+]([C@@H]2O[C@H](COP(=O)(O)O)[C@@H](O)[C@H]2O)c1 [Compound I-016, Bis((S)-1,3-Dicarboxypropan-1-aminium)-1-((2R,3R,4S,5R)-3,4-dihydroxy-5-((phosphonatooxy)methyl)tetrahydrofuran-2-yl)pyridin-1-ium-3-carboxylate]	2.29 fold
(1S,2S)-1-Carboxy-2-methylbutan-1-aminium ((2R,3S,4R,5R)-5-(3-carbamoylpyridin-1-ium-1-yl)-3,4-dihydroxytetrahydrofuran-2-yl)methyl phosphate [Compound I-062]	1.32 fold
O=C([O-])c1ccc[n+]([C@@H]2O[C@H](COP(=O)(O)O)[C@@H](O)[C@H]2O)c1 [Compound I-004, Bis((S)-1-Carboxy-2-methylpropan-1-aminium)-1-((2R,3R,4S,5R)-3,4-dihydroxy-5-((phosphonatooxy)methyl)tetrahydrofuran-2-yl)pyridin-1-ium-3-carboxylate]	1.99 fold
O=C([O-])c1ccc[n+]([C@@H]2O[C@H](COP(=O)(O)O)[C@@H](O)[C@H]2O)c1 [Compound I-006, (S)-1-Carboxy-2-(1H-imidazol-4-yl)ethanaminium 1-((2R,3R,4S,5R)-5-(((hydrogenphosphonato)oxy)methyl)-3,4-dihydroxytetrahydrofuran-2-yl)pyridin-1-ium-3-carboxylate]	1.64 fold
O=C([O-])c1ccc[n+]([C@@H]2O[C@H](COP(=O)(O)O)[C@@H](O)[C@H]2O)c1 [Compound I-003, (S)-4-Amino-1-carboxy-4-oxobutan-1-aminium 1-((2R3R,4S,5R)-5-(((hydrogenphosphonato)oxy)methyl)-3,4-dihydroxytetrahydrofuran-2-yl)pyridin-1-ium-3-carboxylate]	1.89 fold
NC(=O)c1ccc[n+]([C@@H]2O[C@H](COP(=O)([O-])O)[C@@H](O)[C@H]2O)c1 [Compound I-022, (S)-2-carboxypyrrolidin-1-ium ((2R,3S,4R,5R)-5-(3-carbamoylpyridin-1-ium-1-yl)-3,4-dihydroxytetrahydrofuran-2-yl)methyl phosphate]	1.33 fold
O=C(O)c1ccc[n+]([C@@H]2O[C@H](COP(=O)([O-])O)[C@@H](O)[C@H]2O)c1 [Compound I-027, (S)-1-carboxy-3-(methylthio)propan-1-aminium 1-((2R,3R,4S,5R)-5-(((hydrogenphosphonato)oxy)methyl)-3,4-dihydroxytetrahydrofuran-2-yl)pyridin-1-ium-3-carboxylate]	1.49 fold
O=C([O-])c1ccc[n+]([C@@H]2O[C@H](COP(=O)(O)O)[C@@H](O)[C@H]2O)c1 [Compound I-011, (S)-1-Carboxy-2-(1H-indol-3-yl)ethanaminium 1-((2R,3R,4S,5R)-5-(((hydrogenphosphonato)oxy)methyl)-3,4-dihydroxytetrahydrofuran-2-yl)pyridin-1-ium-3-carboxylate]	2.35 fold
(R)-1-Carboxy-2-methylpropan-1-aminium 1-((2R,3R,4S,5R)-3,4-dihydroxy-5-((phosphonatooxy)methyl)tetrahydrofuran-2-yl)pyridin-1-ium-3-carboxylate [Compound I-065]	1.54 fold
O=C([O-])c1ccc[n+]([C@@H]2O[C@H](COP(=O)(O)O)[C@@H](O)[C@H]2O)c1 [Compound I-008, Bis((S)-1-Carboxy-2-(1H-imidazol-4-yl)ethanaminium)-1-((2R,3R,4S,5R)-3,4-dihydroxy-5-((phosphonatooxy)methyl)tetrahydrofuran-2-yl)pyridin-1-ium-3-carboxylate]	2.45 fold
O=C([O-])c1ccc[n+]([C@@H]2O[C@H](COP(=O)(O)O)[C@@H](O)[C@H]2O)c1 [Compound I-017, Bis((S)-1-Carboxy-2-(1H-indol-3-yl)ethanaminium)-1-((2R,3R,4S,5R)-3,4-dihydroxy-5-((phosphonatooxy)methyl)tetrahydrofuran-2-yl)pyridin-1-ium-3-carboxylate]	2.40 fold
NC(=O)c1ccc[n+]([C@@H]2O[C@H](COP(=O)([O-])O)[C@@H](O)[C@H]2O)c1 [Compound I-014, (S)-1-Carboxy-2-(1H-indol-3-yl)ethanaminium ((2R,3S,4R,5R)-5-(3-carbamoylpyridin-1-ium-1-yl)-3,4-dihydroxytetrahydrofuran-2-yl)methyl phosphate]	1.51 fold
O=C(O)c1ccc[n+]([C@@H]2O[C@H](COP(=O)([O-])O)[C@@H](O)[C@H]2O)c1 [Compound I-020, Bis((1S,2R)-1-carboxy-2-hydroxypropan-1-aminium)-1-((2R,3R,4S,5R)-3,4-dihydroxy-5-((phosphonatooxy)methyl)tetrahydrofuran-2-yl)pyridin-1-ium-3-carboxylate]	1.52 fold
(S)-1-Carboxy-3-methylbutan-1-aminium ((2R,3S,4R,5R)-5-(3-carbamoylpyridin-1-ium-1-yl)-3,4-dihydroxytetrahydrofuran-2-yl)methyl phosphate [Compound I-059]	1.80 fold
(S)-1-Carboxy-3-methylbutan-1-aminium 1-((2R,3R,4S,5R)-3,4-dihydroxy-5-((phosphonatooxy)methyl)tetrahydrofuran-2-yl)pyridin-1-ium-3-carboxylate [Compound I-058]	1.81 fold
